Data from PubChem BioAssay (NCI).
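Exposure lasted 48 hours, with cells grown in 96-well plates and compounds tested at five concentrations. Definition used: TGI = concentration required for complete inhibition of growth.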

Experiments:
Assay in all cases: NCI tumour cell line growth inhibition, 48 h
786-0 renal = test system: 786-0 renal
A498 renal = test system: A498 renal
A549 NSCLC = test system: A549 NSCLC
ACHN renal = test system: ACHN renal
BT-549 breast = test system: BT-549 breast
CAKI-1 renal = test system: CAKI-1 renal
CCRF-CEM leukemia = test system: CCRF-CEM leukemia
COLO 205 colon = test system: COLO 205 colon
DU-145 prostate = test system: DU-145 prostate
EKVX NSCLC = test system: EKVX NSCLC
HCC-2998 colon = test system: HCC-2998 colon
HCT-116 colon = test system: HCT-116 colon
HCT-15 colon = test system: HCT-15 colon
HL-60(TB) leukemia = test system: HL-60(TB) leukemia
HOP-62 NSCLC = test system: HOP-62 NSCLC
HOP-92 NSCLC = test system: HOP-92 NSCLC
HS 578T breast = test system: HS 578T breast
HT29 colon = test system: HT29 colon
IGROV1 ovarian = test system: IGROV1 ovarian
K-562 leukemia = test system: K-562 leukemia
KM12 colon = test system: KM12 colon
LOX IMVI melanoma = test system: LOX IMVI melanoma
M14 melanoma = test system: M14 melanoma
MALME-3M melanoma = test system: MALME-3M melanoma
MCF7 breast = test system: MCF7 breast
MDA-MB-231 breast = test system: MDA-MB-231 breast
MDA-MB-435 = test system: MDA-MB-435
MDA-N = test system: MDA-N
MOLT-4 leukemia = test system: MOLT-4 leukemia
NCI-H226 lung = test system: NCI-H226 lung
NCI-H23 lung = test system: NCI-H23 lung
NCI-H460 lung = test system: NCI-H460 lung
NCI-H522 lung = test system: NCI-H522 lung
NCI/ADR-RES ovarian = test system: NCI/ADR-RES ovarian
OVCAR-3 ovarian = test system: OVCAR-3 ovarian
OVCAR-4 ovarian = test system: OVCAR-4 ovarian
OVCAR-5 ovarian = test system: OVCAR-5 ovarian
OVCAR-8 ovarian = test system: OVCAR-8 ovarian
PC-3 prostate = test system: PC-3 prostate
RPMI-8226 leukemia = test system: RPMI-8226 leukemia
RXF 393 renal = test system: RXF 393 renal
SF-268 CNS = test system: SF-268 CNS
SF-295 CNS = test system: SF-295 CNS
SF-539 CNS = test system: SF-539 CNS
SK-MEL-2 melanoma = test system: SK-MEL-2 melanoma
SK-MEL-28 melanoma = test system: SK-MEL-28 melanoma
SK-MEL-5 melanoma = test system: SK-MEL-5 melanoma
SK-OV-3 ovarian = test system: SK-OV-3 ovarian
SN12C renal = test system: SN12C renal
SNB-19 CNS = test system: SNB-19 CNS
SNB-75 CNS = test system: SNB-75 CNS
SR leukemia = test system: SR leukemia
SW-620 colon = test system: SW-620 colon
T-47D breast = test system: T-47D breast
TK-10 renal = test system: TK-10 renal
U251 CNS = test system: U251 CNS
UACC-257 melanoma = test system: UACC-257 melanoma
UACC-62 melanoma = test system: UACC-62 melanoma
UO-31 renal = test system: UO-31 renal

Work on `CC(C)(Cl)C(Br)CCC(CBr)=C(Cl)CCl` (mixture of isomers) yielded a TGI (786-0 renal) of 3.04 µM, a TGI (A498 renal) greater than 5.56 µM and a TGI (A549 NSCLC) greater than 10 µM. The TGI (ACHN renal) was greater than 8.98 µM, the TGI (BT-549 breast) was 4.14 µM and the TGI (CAKI-1 renal) was 5.67 µM. For the same compound, the TGI (CCRF-CEM leukemia) was 0.568 µM, the TGI (COLO 205 colon) was 1.11 µM and the TGI (DU-145 prostate) was greater than 10 µM. For the same compound, the TGI (EKVX NSCLC) was greater than 10 µM, the TGI (HCC-2998 colon) was greater than 8.02 µM and the TGI (HCT-116 colon) was 3.63 µM. For the same compound, the TGI (HCT-15 colon) was 5.15 µM, the TGI (HL-60(TB) leukemia) was 2.95 µM and the TGI (HOP-62 NSCLC) was greater than 6.85 µM. It also gave a TGI (HOP-92 NSCLC) of 3.5 µM, a TGI (HS 578T breast) greater than 10 µM and a TGI (HT29 colon) of 3.77 µM. For the same compound, the TGI (IGROV1 ovarian) was 2.2 µM, the TGI (K-562 leukemia) was 3.75 µM and the TGI (KM12 colon) was 4.1 µM. The TGI (LOX IMVI melanoma) was 3.59 µM, the TGI (M14 melanoma) was 3.49 µM and the TGI (MALME-3M melanoma) was 4.13 µM. It also gave a TGI (MCF7 breast) of 4.79 µM, a TGI (MDA-MB-231 breast) of 3.5 µM and a TGI (MDA-MB-435) of 3.46 µM. For the same compound, the TGI (MDA-N) was 3.74 µM, the TGI (MOLT-4 leukemia) was 1.96 µM and the TGI (NCI-H226 lung) was greater than 2.46 µM. For the same compound, the TGI (NCI-H23 lung) was 5.42 µM, the TGI (NCI-H460 lung) was greater than 10 µM and the TGI (NCI-H522 lung) was 3.22 µM. It also gave a TGI (NCI/ADR-RES ovarian) of 5.21 µM, a TGI (OVCAR-3 ovarian) greater than 5.48 µM and a TGI (OVCAR-4 ovarian) greater than 5.87 µM. The TGI (OVCAR-5 ovarian) was greater than 8.21 µM, the TGI (OVCAR-8 ovarian) was 3.14 µM and the TGI (PC-3 prostate) was 5.56 µM. It also gave a TGI (RPMI-8226 leukemia) of 4.39 µM, a TGI (RXF 393 renal) of 4.97 µM and a TGI (SF-268 CNS) of 5.67 µM. The TGI (SF-295 CNS) was greater than 10 µM, the TGI (SF-539 CNS) was 4.07 µM and the TGI (SK-MEL-2 melanoma) was 4.41 µM. The TGI (SK-MEL-28 melanoma) was 4.41 µM, the TGI (SK-MEL-5 melanoma) was 3.87 µM and the TGI (SK-OV-3 ovarian) was greater than 8.72 µM. For the same compound, the TGI (SN12C renal) was 0.971 µM, the TGI (SNB-19 CNS) was 9.73 µM and the TGI (SNB-75 CNS) was 7.93 µM. The TGI (SR leukemia) was 2.55 µM, the TGI (SW-620 colon) was 5.6 µM and the TGI (T-47D breast) was 5.33 µM. It also gave a TGI (TK-10 renal) greater than 5.76 µM, a TGI (U251 CNS) of 3.16 µM and a TGI (UACC-257 melanoma) of 4.89 µM. The TGI (UACC-62 melanoma) was 3.71 µM and the TGI (UO-31 renal) was 3.96 µM.

Compound `CCOC(=O)c1ccc(NC(=O)O/N=C(/Cl)C(C)C)cc1` has a TGI (786-0 renal) of 16.5 µM, a TGI (A498 renal) of 28.4 µM and a TGI (A549 NSCLC) of 47.7 µM. It also gave a TGI (ACHN renal) of 27 µM, a TGI (BT-549 breast) of 32.7 µM and a TGI (CAKI-1 renal) of 8.87 µM. The TGI (CCRF-CEM leukemia) was 2.55 µM, the TGI (COLO 205 colon) was 5.77 µM and the TGI (DU-145 prostate) was greater than 67.2 µM. For the same compound, the TGI (EKVX NSCLC) was 31.3 µM, the TGI (HCC-2998 colon) was 33.2 µM and the TGI (HCT-116 colon) was 22.4 µM. The TGI (HCT-15 colon) was 24.9 µM, the TGI (HL-60(TB) leukemia) was 3.26 µM and the TGI (HOP-62 NSCLC) was 32.2 µM. For the same compound, the TGI (HOP-92 NSCLC) was 3.7 µM, the TGI (HS 578T breast) was 94.8 µM and the TGI (HT29 colon) was 48 µM. For the same compound, the TGI (IGROV1 ovarian) was 43 µM, the TGI (K-562 leukemia) was 3.52 µM and the TGI (KM12 colon) was 35.9 µM. The TGI (LOX IMVI melanoma) was 9.65 µM, the TGI (M14 melanoma) was 14.6 µM and the TGI (MALME-3M melanoma) was 8.49 µM. For the same compound, the TGI (MCF7 breast) was 21.3 µM, the TGI (MDA-MB-231 breast) was 39.7 µM and the TGI (MDA-MB-435) was 32.5 µM. The TGI (MDA-N) was 32.4 µM, the TGI (MOLT-4 leukemia) was 4.63 µM and the TGI (NCI-H226 lung) was 50.2 µM. It also gave a TGI (NCI-H23 lung) of 47.7 µM, a TGI (NCI-H460 lung) of 38.3 µM and a TGI (NCI-H522 lung) of 3.85 µM. It also gave a TGI (NCI/ADR-RES ovarian) of 37.5 µM, a TGI (OVCAR-3 ovarian) of 11.5 µM and a TGI (OVCAR-4 ovarian) of 28.4 µM. It also gave a TGI (OVCAR-5 ovarian) of 32.9 µM, a TGI (OVCAR-8 ovarian) of 27.9 µM and a TGI (PC-3 prostate) of 34.9 µM. The TGI (RPMI-8226 leukemia) was 24.8 µM, the TGI (RXF 393 renal) was 30.6 µM and the TGI (SF-268 CNS) was 34.8 µM. The TGI (SF-295 CNS) was 34.8 µM, the TGI (SF-539 CNS) was 34.6 µM and the TGI (SK-MEL-2 melanoma) was 29.3 µM. The TGI (SK-MEL-28 melanoma) was 31 µM, the TGI (SK-MEL-5 melanoma) was 30 µM and the TGI (SK-OV-3 ovarian) was 33.4 µM. The TGI (SN12C renal) was 44 µM, the TGI (SNB-19 CNS) was greater than 59.1 µM and the TGI (SNB-75 CNS) was 27.4 µM. The TGI (SR leukemia) was 11.2 µM, the TGI (SW-620 colon) was 4.32 µM and the TGI (T-47D breast) was 6.62 µM. For the same compound, the TGI (TK-10 renal) was 33.5 µM, the TGI (U251 CNS) was 36.3 µM and the TGI (UACC-257 melanoma) was 32 µM. For the same compound, the TGI (UACC-62 melanoma) was 38.2 µM and the TGI (UO-31 renal) was 31.9 µM.
